Patent publication US9580426B2, “Compounds that expand hematopoietic stem cells” (Novartis AG, priority 2008, dated 2017)

Test system: Primary adult CD34+ human hematopoietic stem cells (HSCs)
Experiment: % CD34+ assay: HSC expansion screen, dose response
Assay type: cell-based
Settings: Homo sapiens, Hematopoietic stem cell; dose response 1 nM to 10 μM; total number and/or percent of CD34+ cells
Description: Primary adult CD34^+ human hematopoietic stem cells (HSCs) are cultured and screened to identify compounds of the invention that facilitate HSC expansion. The cells are analyzed for the presence of the desired phenotype (CD34 expression). Compounds of the invention promote HSC expansion in a dose dependent manner.
Culture Medium: StemSpan SFEM medium is serum-free medium (StemCell Technologies, Vancouver, BC) supplemented with the following human recombinant cytokines: thrombopoietin, interleukin-6, Flt-3 ligand, and stem cell factor (all from R&D Systems, Minneapolis, Minn.), each at a final concentration of 50 ng/mL, with vehicle (DMSO) or a compound of the invention.
Human Cell Culture: Fresh human leukophoresed G-CSF mobilized peripheral blood from normal donors, CD34^+ cells from adult bone marrow and cryopreserved human cord blood CD34^+ cells are purchased from AllCells (Berkeley, Calif.). Human CD34^+ cells are enriched from leukophoresed G-CSF mobilized peripheral blood using magnetic cell sorting (MACS, Direct CD34 Progenitor Cell Isolation Kit, Miltenyi Biotec, Bergisch Gladbach, Germany) and cryopreserved. CD34^+ cell purity, checked by flow Cytometry, is higher than 90%. After thawing, the cell viability tested by trypan blue exclusion is higher than 70%. The thawed cells are centrifuged and resuspended with StemSpan medium before being aliquoted for immediate culture. Cells are plated at 10^4 cells/mL in a 384 well plate (Greiner Bio-One, Monroe, N.C.) with 50 μL of medium per well for 7 days. Every 7 days the cells are transferred to larger well plates and fresh medium is added to keep the cell density between 10^4 and 5×10^5 cells/mL. Cells were cultured at 37° C. in 5% CO2. For transplantation, cells were cultured in 75 cm^2 flasks before the cells were transplanted into mice. At a concentration of 1 micromolar, 4-(2-(2-(benzo[b]thiophen-3-yl)-9-isopropyl-9H-purin-6-ylamino)ethyl)phenol (compound 1, table 1; example 1), 4-(2-(2-(benzo[b]thiophen-3-yl)-9-sec-butyl-9H-purin-6-ylamino)ethyl)phenol (compound 2, table 1), and N-(2-(1H-indol-3-yl)ethyl)-2-(benzo[b]thiophen-3-yl)-9-isopropyl-9H-purin-6-amine (compound 9, table 1) each gives rise to a greater than 10-fold increase in the number of CD34^+ CD45RA^− cells derived from 1000 mPB CD34^+ HSCs after 21 days compared to vehicle. Compounds of the invention were assayed in a dose response format (1 nM to 10 μM) to determine the effective concentration that produced the desired effect in 50% of the cells (EC50).

Compound | EC50
CCC(C)n1cnc2c(NCCc3ccc(O)cc3)nc(-c3csc4ccccc34)nc21 (stereo not shown) [Example 2, 4-(2-(2-(benzo[b]thiophen-3-yl)-9-sec-butyl-9H-purin-6-ylamino)ethyl)phenol] | 30 nM
Oc1ccc(CCNc2nc(-c3csc4ccccc34)nc3c2ncn3C(c2ccccc2)c2ccccc2)cc1 [Example 3] | 150 nM
Oc1ccc(CCNc2nc(-c3csc4ccccc34)nc3c2ncn3C2CCCOC2)cc1 (stereo not shown) [Example 4] | 1490 nM
Oc1ccc(CCNc2nc(-c3csc4ccccc34)nc3c2ncn3Cc2ccc(C(F)(F)F)cc2)cc1 [Example 5] | 2080 nM
CC(C)Cn1cnc2c(NCCc3ccc(O)cc3)nc(-c3csc4ccccc34)nc21 [Example 6] | 2530 nM
Cn1cnc2c(NCCc3ccc(O)cc3)nc(-c3csc4ccccc34)nc21 [Example 7] | 7200 nM
Cc1ccc(Cn2cnc3c(NCCc4ccc(O)cc4)nc(-c4csc5ccccc45)nc32)cc1 [Example 8] | 6030 nM
CC(C)n1cnc2c(NCCc3c[nH]c4ccccc34)nc(-c3csc4ccccc34)nc21 [Example 9, N-(2-(1H-indol-3-yl)ethyl)-2-(benzo[b]thiophen-3-yl)-9-isopropyl-9H-purin-6-amine] | 20 nM
CC(C)n1cnc2c(NCCc3ccsc3)nc(-c3csc4ccccc34)nc21 [Example 10] | 1380 nM
CC(C)n1cnc2c(NCCc3cccc(O)c3)nc(-c3csc4ccccc34)nc21 [Example 11] | 1450 nM
CC(C)n1cnc2c(NCCc3ccc(F)cc3)nc(-c3csc4ccccc34)nc21 [Example 12] | 1760 nM
CC(C)n1cnc2c(NCCc3ccc(N)cc3)nc(-c3csc4ccccc34)nc21 [Example 13] | 5750 nM
CC(C)n1cnc2c(NCCc3ccc(O)cc3)nc(-c3cncnc3)nc21 [Example 14] | 170 nM
CC(C)n1cnc2c(NCCc3ccc(O)cc3)nc(-c3cccnc3)nc21 [Example 15] | 190 nM
CC(C)n1cnc2c(NCCc3ccc(O)cc3)nc(-c3ccccc3)nc21 [Example 16] | 460 nM
CC(C)n1cnc2c(NCCc3ccc(O)cc3)nc(-c3ccsc3)nc21 [Example 17] | 970 nM
CC(C)n1cnc2c(NCCc3ccc(O)cc3)nc(-c3ccoc3)nc21 [Example 18] | 3900 nM
Fc1ccc(CCNc2nc(-c3csc4ccccc34)nc3c2ncn3-c2ccccc2)cc1 [Example 19] | 1100 nM
CC(C)n1c(-c2ccc(-c3ccccc3)cc2)nc2c(NCc3ccccc3)ncnc21 [Example 20] | 7800 nM
CCCCCCCC(C)n1cnc2c(NCCc3ccc(O)cc3)nc(-c3csc4ccccc34)nc21 (stereo not shown) [Example 21] | 130 nM
CCC(C)n1cnc2c(NCCc3c[nH]c4ccccc34)nc(-c3csc4ccccc34)nc21 (stereo not shown) [Example 23] | 19 nM

Compound | EC50
CC(C)n1cnc2c(NCCc3ccc(O)cc3)nc(-c3ccncc3)nc21 [Example 31] | 660 nM
CCOC(=O)c1cncc(-c2nc(NCCc3ccc(O)cc3)c3ncn(C(C)C)c3n2)c1 [Example 32] | 5600 nM
COc1cncc(-c2nc(NCCc3ccc(O)cc3)c3ncn(C(C)C)c3n2)c1 [Example 33] | 270 nM
CC(C)n1cnc2c(NCCc3ccc(O)cc3)nc(-c3ccc(F)nc3)nc21 [Example 34] | 160 nM
Cc1ccncc1-c1nc(NCCc2ccc(O)cc2)c2ncn(C(C)C)c2n1 [Example 35] | 340 nM
CC(C)n1cnc2c(NCCc3ccc(O)cc3)nc(-c3cncc(C#N)c3)nc21 [Example 37] | 24 nM
CC(C)n1cnc2c(NCCc3ccc(O)cc3)nc(N3CCCC3)nc21 [Example 38] | 1600 nM
CC(C)n1cnc2c(NCCc3ccc(O)cc3)nc(-n3ccnc3)nc21 [Example 40] | 260 nM
CC(C)n1cnc2c(NCCc3ccc(O)cc3)nc(-c3ccnnc3)nc21 [Example 42] | 640 nM
CC(C)n1cnc2c(NCCc3ccc(O)cc3)nc(-c3cnccn3)nc21 [Example 43] | 2400 nM
CC(C)n1cnc2c(NCCc3ccc(O)cc3)nc(-c3ccccn3)nc21 [Example 44] | 1700 nM
Cc1cncc(-c2nc(NCCc3ccc(O)cc3)c3ncn(C(C)C)c3n2)c1 [Example 45] | 63 nM
CC(C)n1cnc2c(NCCc3ccc(O)cc3)nc(-c3cncc(S(C)(=O)=O)c3)nc21 [Example 46] | 650 nM
CC(C)n1cnc2c(NCCc3ccc(O)cc3)nc(-c3cnccc3Cl)nc21 [Example 48] | 510 nM
CC(C)n1cnc2c(NCCc3ccc(O)cc3)nc(-c3cncc(F)c3)nc21 [Example 50] | 34 nM
CC(C)n1cnc2c(NCCc3ccc(O)cc3)nc(-c3cccs3)nc21 [Example 55] | 1300 nM
Cc1cscc1-c1nc(NCCc2ccc(O)cc2)c2ncn(C(C)C)c2n1 [Example 58] | 240 nM
COc1cc(CCNc2nc(-c3cccnc3)nc3c2ncn3C(C)C)ccc1O [Example 60] | 3200 nM
COc1ccc2c(CCNc3nc(-c4cccnc4)nc4c3ncn4C(C)C)c[nH]c2c1 [Example 61] | 130 nM
Cc1ccc2[nH]cc(CCNc3nc(-c4cccnc4)nc4c3ncn4C(C)C)c2c1 [Example 62] | 720 nM
CC(C)n1cnc2c(NCCN3CCNC3=O)nc(-c3cccnc3)nc21 [Example 70] | 2700 nM

Compound | EC50
CC(C)n1cnc2c(NCCNc3ccccn3)nc(-c3cccnc3)nc21 [Example 72] | 6300 nM
CC(C)n1cnc2c(NCCCc3cn[nH]c3)nc(-c3cccnc3)nc21 [Example 73] | 8200 nM
Cc1n[nH]c(SCCNc2nc(-c3cccnc3)nc3c2ncn3C(C)C)n1 [Example 76] | 6000 nM
CC(C)n1cnc2c(NCCN3CCNC3=O)nc(-c3csc4ccccc34)nc21 [Example 81] | 2700 nM
CC(C)n1cnc2c(NCCc3n[nH]c(N)n3)nc(-c3csc4ccccc34)nc21 [Example 82] | 7900 nM
CC(C)n1cnc2c(NCCNc3ccccn3)nc(-c3csc4ccccc34)nc21 [Example 83] | 7100 nM
CC(C)n1cnc2c(NCCCc3cn[nH]c3)nc(-c3csc4ccccc34)nc21 [Example 84] | 5400 nM
Cc1n[nH]c(C)c1CCCNc1nc(-c2csc3ccccc23)nc2c1ncn2C(C)C [Example 88] | 2600 nM
CC(C)n1cnc2c(NCCNC(N)=O)nc(-c3csc4ccccc34)nc21 [Example 89] | 1400 nM
CC(C)n1cnc2c(NCc3ccc4[nH]c(=O)[nH]c4c3)nc(-c3csc4ccccc34)nc21 [Example 90] | 3300 nM
CC(C)n1cnc2c(NCCc3c[nH]c4ccccc34)nc(-c3cccnc3)nc21 [Example 91] | 29 nM
CC(C)n1cnc2c(NCCc3ccc(NS(C)(=O)=O)cc3)nc(-c3cccnc3)nc21 [Example 92] | 7100 nM
Oc1ccc(CCNc2nc(-c3cccnc3)nc3c2ncn3[C@@H]2CCOC2)cc1 [Example 93R] | 520 nM
Oc1ccc(CCNc2nc(-c3cccnc3)nc3c2ncn3[C@H]2CCOC2)cc1 [Example 93S] | 1100 nM
Oc1ccc(CCNc2nc(-c3cccnc3)nc3c2ncn3C2COC2)cc1 [Example 94] | 970 nM
CC(Cc1ccc(O)cc1)Nc1nc(-c2cccnc2)nc2c1ncn2C(C)C (stereo not shown) [Example 95] | 2300 nM
CC(C)n1cnc2c(NCCc3n[nH]c4ccccc34)nc(-c3cccnc3)nc21 [Example 98] | 8200 nM
CC(C)n1cnc2c(N(C)CCc3ccc(O)cc3)nc(-c3cccnc3)nc21 [Example 99] | 7500 nM
CC(CO)n1cnc2c(NCCc3ccc(O)cc3)nc(-c3cccnc3)nc21 (stereo not shown) [Example 113] | 540 nM
